{"source": "patent US20250375420A1", "about": "(ZYLORION HEALTH INC., priority 2022, published 2025)", "key": {"h5HT2a [1]": {"molecular_target": "T1, h5HT2a (Homo sapiens, UniProt P28223)", "T1 sequence (P28223 whole entry)": "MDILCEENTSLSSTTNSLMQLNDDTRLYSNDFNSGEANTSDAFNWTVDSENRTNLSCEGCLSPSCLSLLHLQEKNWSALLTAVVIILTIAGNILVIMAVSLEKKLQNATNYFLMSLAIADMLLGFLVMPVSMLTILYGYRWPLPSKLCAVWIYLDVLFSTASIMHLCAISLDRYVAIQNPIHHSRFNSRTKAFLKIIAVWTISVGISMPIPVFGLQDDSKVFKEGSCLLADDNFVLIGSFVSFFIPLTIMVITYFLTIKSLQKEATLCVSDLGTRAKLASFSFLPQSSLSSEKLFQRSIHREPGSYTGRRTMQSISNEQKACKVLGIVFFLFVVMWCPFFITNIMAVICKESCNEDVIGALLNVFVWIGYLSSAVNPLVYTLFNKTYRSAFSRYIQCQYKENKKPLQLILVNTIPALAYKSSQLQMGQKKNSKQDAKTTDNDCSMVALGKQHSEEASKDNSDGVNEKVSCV", "assay": "cell-based", "assay_type": "cell-based", "design": "expressed in transfected cells; host or cells: CHO-K1", "quoted_text": "Compound activity was quantified as βarrestin2 recruitment from CHO-K1 cells expressing h5HT2a and treated with 0.1 nM-10 μM compounds.\nCHO-K1 cells express h5HT2a-smBIT and βarrestin2-lgBiT fusion proteins. When h5HT2a and βarrestin2 come into contact with one another the smBIT and IgBIT peptides complement each other to produce a complete NanoBit luciferase enzyme. When complete, the enzyme is able to catalyze the breakdown of the molecule coelenterazine to produce light. Emitted light levels are proportional to interactions between h5HT2a and βarrestin2. CHO-K1 cells were treated with between 0.1 nM-10 μM of each compound for 2 h, during which period chemiluminescence is recorded. Area under the curve data for cumulative chemiluminescence are then fit to a three-parameter non-linear regression to determine potency (EC50) and efficacy (Emax). Data were fit to a three-parameter non-linear regression in GraphPad (v. 9). n=3-13 independent experiments performed in duplicate or triplicate. Data are expressed as mean±SEM."}, "h5HT2a [2]": {"molecular_target": "T1, h5HT2a", "assay": "cell-based", "assay_type": "cell-based", "design": "expressed in transfected cells; host or cells: CHO-K1 (AequoScreen line with aequorin in A1; membranes of stably expressing CHO-K1 cells in A3)", "quoted_text": "AequoScreen CHO-K1 cells stably-expressing h5HT2a contain an aequorin protein that, when bound to Ca^2+, is able to catalyze the breakdown of the molecule coelenterazine to produce light. Emitted light levels are proportional to endoplasmic reticulum Ca^2+ release. CHO-K1 cells were treated with between 0.1 nM-10 μM of each compound for 1 min before chemiluminescence is recorded. Resulting data are then fit to a three parameter non-linear regression to determine potency (EC50) and efficacy (Emax). Data were fit to a three-parameter non-linear regression in GraphPad (v. 9). n=3-29 independent experiments performed in duplicate or triplicate. Data are expressed as mean±SEM."}, "C57BL/6 mice [3]": {"system": "C57BL/6 mice", "assay": "Head-twitch response (HTR)", "assay_type": "in vivo, mouse", "settings": "i.p.", "description": "C57BL/6 mice were treated with increasing doses of compounds as indicated via i.p. injection. Mice were placed inside a clear cylinder and video recorded for 10 min immediately after compound administration. Head-twitch was recorded by an individual blinded to treatment as a lateral, rhythmic shaking of the head distinct from grooming or vertical head nod. Data were plotted in GraphPad (v. 9). n≥3 animals per dose. Data are expressed as mean±SEM."}, "C57BL/6 mice [4]": {"system": "C57BL/6 mice", "assay": "Catalepsy, bar holding assay", "assay_type": "in vivo, mouse", "settings": "i.p., increasing doses, 10 min after administration", "description": "(§1) Compound activity was quantified in C57BL/6 mice for catalepsy (10 min) (top), nociception in the tail flick latency test (15 min) (middle), and body temperature relative to baseline (20 min) (bottom).\n(§2) C57BL/6 mice were treated with increasing doses of compounds as indicated via i.p. injection. Tests were as follows: Body temperature is taken before administration of the first dose of compound for baseline. Catalepsy—the bar holding assay, 10 min after compound administration. Mice are placed such that their forepaws clasp a 0.7 cm ring clamp positioned 4.5 cm above the surface of the testing space. The length of time the ring is held is recorded (sec). The trial is ended if the mouse turns its head or body, or makes 3 consecutive escape attempts, to a maximum of 60 sec. Nociception—15 min after compound administration the mouse's tail is placed in 52° C. water. Latency to remove the tail from water is recorded to a maximum of 20 sec. Body temperature—rectal thermometer 20 min after compound administration. Data were plotted in GraphPad (v. 9). n≥6 animals per dose. Data are expressed as mean±SEM."}, "h5HT2a [5]": {"molecular_target": "T1, h5HT2a", "assay": "biochemical", "assay_type": "binding", "design": "expressed in transfected cells; host or cells: CHO-K1 (AequoScreen line with aequorin in A1; membranes of stably expressing CHO-K1 cells in A3)", "settings": "1 nM [3H]ketanserin, 0.1 nM-10 μM compound, 2 h", "quoted_text": "CHO-K1 cells stably-expressing h5HT2a are grown, collected, and frozen at −80° C. Cells are thawed as needed and subjected to pressure cavitation using a Dounce homogenizer to rupture cell membranes. Cell membranes are then collected by subjecting cell lysates to high-speed centrifugation at 20,000×g for 30 min at 4° C. Homogenization and centrifugation are repeated to enrich the sample for receptor-containing cell membranes. CHO-K1 cell membranes are the co-incubated with 1 nM [^3H]ketanserin and between 0.1 nM-10 μM of each compound for 2 h. Samples are then pipetted onto filter paper before being rinsed and washed by vacuum filtration three times, dried, and incubated overnight in scintillation fluid. […] Resulting data are then fit to a three-parameter non-linear regression to determine affinity (Ki). […] Data are expressed as mean±SEM."}, "[6]": {"assay": "Dynamic vapor sorption (DVS) analysis", "assay_type": "physicochemical", "description": "Moisture sorption isotherms were collected on a DVS Adventure system from Surface Measurement Systems (London, UK). Sample size was circa 10 mg of solid material. A full sorption and desorption isotherm was recorded by varying the relative humidity from 40-95-0-40% in steps of 10% at a constant temperature of 25° C. Weight equilibration per step was set at dm/dt of 0.002%/min. Afterwards the sample was measured by HT-XRPD."}, "C57BL/6 mice [7]": {"system": "C57BL/6 mice", "assay": "Open field task (OFT)", "assay_type": "in vivo, mouse", "settings": "i.p., 30 min after administration; significant for movement and velocity, not time in center, at 7 or 10 mg/kg", "description": "C57BL/6 mice were treated with increasing doses of compounds as indicated via i.p. injection. Mice are placed in the open field 30 min after compound administration. The open field measures 1 m×1 m and the test lasts for 5 min. Total distance travelled, velocity, and time spent in the central quadrant of the field are recorded and analyzed using Etho Vision XT (Noldus, v. 17). Data were plotted in GraphPad (v. 9). n≥4 animals per dose. Data are expressed as mean±SEM."}, "C57BL/6 mice [8]": {"system": "C57BL/6 mice", "assay": "Body temperature relative to baseline (rectal thermometer)", "assay_type": "in vivo, mouse", "settings": "i.p., increasing doses, 20 min after administration", "description": "as §1, §2"}, "C57BL/6 mice [9]": {"system": "C57BL/6 mice", "assay": "Nociception, tail flick latency test (52° C. water)", "assay_type": "in vivo, mouse", "settings": "i.p., increasing doses, 15 min after administration", "description": "as §1, §2"}, "C57BL/6 mice [10]": {"system": "C57BL/6 mice", "assay": "Elevated plus maze (EPM)", "assay_type": "in vivo, mouse", "settings": "3 mg/kg i.p., 30 min, preliminary", "description": "Representative movement traces from Ethovision in male C57BL/6 mice (top, right).\nC57BL/6 mice were treated 3 mg/kg of compounds via i.p. injection. Mice are placed in the EPM 30 min after compound administration. The EPM measures 1 m×1 m and the test lasts for 5 min. Total distance travelled, velocity, arm entries, and time in each arm are recorded and analyzed using EthoVision XT (Noldus, v. 17). Data were plotted in GraphPad (v. 9). n=3-5 animals per treatment. Data are expressed as mean±SEM."}, "[11]": {"settings": "βarrestin2 recruitment, CHO-K1 h5HT2a"}}, "note": "Where two headings read alike, the source gives them in different places."}
{"smiles": "CCN(CC)C(=O)[C@@H]1C=C2c3cccc4[nH]cc(c34)C[C@H]2N(C)C1", "note": "[LSD]", "values": [{"measurement": "Emax (%) ± S.E.M.", "setting": "h5HT2a [1]", "value": "100 ± 16", "unit": "%"}, {"measurement": "Emax (%) ± S.E.M.", "setting": "h5HT2a [2]", "value": "100 ± 9.9", "unit": "%"}, {"measurement": "time of peak head-twitch effect post-compound administration", "setting": "C57BL/6 mice [3]; at several tested doses", "value": "around 7 min"}]}
{"smiles": "CN(C)CCc1c[nH]c2cccc(OP(=O)(O)O)c12", "note": "[Psilocybin]", "values": [{"measurement": "Emax", "setting": "h5HT2a [1]; [11]", "value": "-34 ± 5.9", "unit": "%"}, {"measurement": "pEC50 ± S.E.M.", "setting": "h5HT2a [1]; βarrestin2 recruitment, CHO-K1 h5HT2a, 0.1 nM-10 μM, 2 h, AUC", "value": "Not Converged"}, {"measurement": "catalepsy", "setting": "C57BL/6 mice [4]", "value": "do not produce catalepsy"}, {"measurement": "Ki", "setting": "h5HT2a [5]", "value": 390, "unit": "nM"}, {"measurement": "Emax", "setting": "h5HT2a [2]; Ca2+ release, CHO-K1 h5HT2a", "value": "69 ± 15", "unit": "%"}, {"measurement": "EC50", "setting": "h5HT2a [2]; Ca2+ release, CHO-K1 h5HT2a, 0.1 nM-10 μM, 1 min", "value": 1500, "unit": "nM"}]}
{"smiles": "CCc1cc(/C(C)=N/OCc2ccc(C3CCCCC3)c(C(F)(F)F)c2)ccc1CN1CC(C(=O)O)C1.CCc1cc(/C(C)=N/OCc2ccc(C3CCCCC3)c(C(F)(F)F)c2)ccc1CN1CC(C(=O)O)C1.O=C(O)/C=C/C(=O)O", "note": "[Crystalline Form A]", "values": [{"measurement": "hygroscopicity according to the EP hygroscopicity classification", "setting": "[6]; DVS, 25° C.", "value": "moderately hygroscopic"}, {"measurement": "total mass difference between 0-95% RH", "setting": "[6]; DVS, 25° C.", "value": 3.6, "unit": "%"}, {"measurement": "physical stability after the sorption-desorption cycle (XRPD)", "setting": "[6]; solid recovered after DVS", "value": "physically stable"}]}
{"smiles": "CNCCc1c[nH]c2cccc(O)c12", "note": "[Norpsilocin]", "values": [{"measurement": "Emax (%) ± S.E.M.", "setting": "h5HT2a [1]; [11]", "value": "2.9 ± 27", "unit": "%"}, {"measurement": "Emax (%) ± S.E.M.", "setting": "h5HT2a [2]; Ca2+ release, CHO-K1 h5HT2a", "value": "45 ± 14", "unit": "%"}]}
{"smiles": "CN(C)CCc1c[nH]c2cccc(O)c12", "note": "[Psilocin]", "values": [{"measurement": "movement, velocity and time in the center of the open field", "setting": "C57BL/6 mice [7]", "value": "dose-dependent decrease in movement, velocity, and time in the center of the open field"}, {"measurement": "potency in Ca2+ release assay compared with βarrestin2 recruitment assay", "setting": "h5HT2a [1]; comparison of the two h5HT2a assays", "value": "greater in the Ca^2+ release assay than the βarrestin2 recruitment assay"}, {"measurement": "βarrestin2 recruitment activity (in words)", "setting": "h5HT2a [1]; h5HT2a-dependent βarrestin2 recruitment", "value": "activator of βarrestin2 recruitment"}, {"measurement": "Emax", "setting": "h5HT2a [1]; [11]", "value": "89 ± 22", "unit": "%"}, {"measurement": "body temperature", "setting": "C57BL/6 mice [8]", "value": "dose-dependent hypothermia"}, {"measurement": "catalepsy", "setting": "C57BL/6 mice [4]", "value": "do not produce catalepsy"}, {"measurement": "pain perception (nociception)", "setting": "C57BL/6 mice [9]", "value": "significantly reduces pain perception peaking at 1 mg/kg"}, {"measurement": "Emax", "setting": "h5HT2a [2]; Ca2+ release, CHO-K1 h5HT2a", "value": "89 ± 11", "unit": "%"}, {"measurement": "Ca2+ release activity (in words)", "setting": "h5HT2a [2]; h5HT2a-dependent Ca2+ release", "value": "potent activator of Ca^2+ release"}, {"measurement": "head-twitch response", "setting": "C57BL/6 mice [3]; 0-10 min after administration", "value": "time-dependent head-twitch response"}, {"measurement": "closed arm time", "setting": "C57BL/6 mice [10]; p=0.029, unpaired t-test", "value": "significantly reduces closed arm time"}, {"measurement": "open arm time", "setting": "C57BL/6 mice [10]; p=0.12, unpaired t-test", "value": "but not open arm time"}, {"measurement": "arm entries", "setting": "C57BL/6 mice [10]", "value": "no significant differences in arm entries"}, {"measurement": "overall movement and velocity in EPM", "setting": "C57BL/6 mice [10]", "value": "trend toward reduced overall movement and velocity"}]}
